Where a name gives a salt, the structure may show the parent alone.
Experiments:
[1] = target: T1, Human 5-HT4 receptor (5-HT4b) (Homo sapiens, UniProt Q13639); assay: Test Example 3: Human 5-HT4 receptor binding assay, membranes of CHO-K1 cells stably expressing 5-HT4b receptors (Table 99); details: mean value of each group
T1 construct: expressed in transfected cells; membrane preparation
Description: To an assay tube were added 0.1 nM [^3H]-GR113808 {chemical name: [1-[2-(methylsulfonylamino) ethyl]-4-piperidinyl]methyl 1-methylindole-3-carboxylate}, receptor membrane preparations, and Hepes buffer (50 mM, pH 7.4, 4° C., 1 ml) containing test compounds or 30 μM serotonin; and the mixture was incubated at 37° C. for 30 minutes. On quenching the reaction, the mixture was rapidly filtered on whatman GF/B filter, which was presoaked in 0.1% polyethyleneimine for 1 hour, by using Brandel cell Harvester, and washed with ice-cooled 50 mM Tris-HCl (pH 7.7, 4 ml) three times. To the filter after filtration was added a liquid scintillator (Ecoscint), and then a radioactivity was determined by a liquid scintillation counter.
50% Inhibition concentrations (IC50) were determined from inhibition rates of test compounds to specific bindings which were obtained by subtracting nonspecific bindings from total binding amounts of [^3H]-GR113808.
Human 5-HT4 receptor membrane preparations were prepared from CHO-K^1 cells which stably express 5-HT4b receptors, and human 5-HT4 receptor binding assay was carried out in a similar manner as in the guinea pig 5-HT4 receptor binding assay. The following tables show results of serotonin 4 (5-HT4) receptor binding assay. In the following tables, the compounds used in the test are shown in numbers which correspond to the Example numbers above where the preparations of the compounds are described.

human 5-HT4b receptor = target: T2, human 5-HT4b receptor (Homo sapiens, UniProt Q13639); assay: Test Example 4: Serotonin 4 (5-HT4) receptor agonist activity assay, cAMP HTRF in CHO cells (Table 100); type: cell-based; details: mean value; for Emax: CHO, 0.25 h, intrinsic activity, maximal activity of 5-HT defined as 100%, read-out: IA (%); for EC50: concentration showing 50% of IA
T2 construct: expressed in transfected cells; host or cells: CHO cells (G418 selection)
T2 sequence (Q13639 whole entry): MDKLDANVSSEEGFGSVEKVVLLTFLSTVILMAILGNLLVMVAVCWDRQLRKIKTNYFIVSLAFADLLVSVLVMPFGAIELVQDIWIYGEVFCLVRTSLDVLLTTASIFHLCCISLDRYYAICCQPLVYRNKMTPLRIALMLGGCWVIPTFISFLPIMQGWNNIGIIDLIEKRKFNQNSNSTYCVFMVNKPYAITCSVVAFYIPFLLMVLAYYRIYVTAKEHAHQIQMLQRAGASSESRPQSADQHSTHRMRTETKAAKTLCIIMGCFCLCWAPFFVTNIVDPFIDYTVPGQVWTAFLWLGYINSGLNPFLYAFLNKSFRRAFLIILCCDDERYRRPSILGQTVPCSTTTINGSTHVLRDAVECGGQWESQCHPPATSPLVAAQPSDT
Method in brief: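 CHO cells expressing human 5-HT4b receptor, serum-reduced for 1–2 h, were suspended in Hanks/HEPES pH 7.4 and exposed to compound for 15 min at 31° C. cAMP detected by HTRF (cryptate/d2, 1 h RT, 620/665 nm). EC50 and intrinsic activity relative to maximal 5-HT response (10^−11 to 10^−7 M) set at 100%.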

T1 sequence (Q13639 whole entry): as above

SMILES | IC50 [1] [µM] | Emax (human 5-HT4b receptor) [%] | EC50 (human 5-HT4b receptor) [µM]
CC(=O)N1CCC[C@H]1CN1CC[C@H](Cc2nc(-n3nc(C(C)C)c4cccc(F)c43)no2)C1 [Example 497, 1-[(2S)-2-{[(3R)-3-({3-[7-fluoro-3-(propan-2-yl)-1H-indazol-1-yl]-1,2,4-oxadiazol-5-yl}methyl)pyrrolidin-1-yl]methyl}pyrrolidin-1-yl]ethanone] | 0.0761 | 88 | 0.0058
CC(C)c1nn(-c2noc(C3CCN(C4CCS(=O)(=O)CC4)CC3)n2)c2c(F)cccc12 [Example 444, 1-{5-[1-(1,1-dioxidotetrahydro-2H-thiopyran-4-yl)piperidin-4-yl]-1,2,4-oxadiazol-3-yl}-7-fluoro-3-(propan-2-yl)-1H-indazole] | 0.0968 | – | –
Cc1cccc2c1c(C(C)C)nn2-c1noc(C2CCN(C3CCOCC3)CC2)n1 [Example 424, 4-methyl-3-(propan-2-yl)-1-{5-[1-(tetrahydro-2H-pyran-4-yl)piperidin-4-yl]-1,2,4-oxadiazol-3-yl}-1H-indazole] | 0.055 | – | –
CC(C)c1nn(-c2noc(C3CC(NC4CCCOC4)C3)n2)c2c(F)cccc12 (stereo not drawn) [Example 600, N-(3-{3-[7-fluoro-3-(propan-2-yl)-1H-indazol-1-yl]-l,2,4-oxadiazol-5-yl}cyclobutyl)tetrahydro-2H-pyran-3-amine] | < 0.02 | – | –
CC(C)c1nn(-c2noc(C3CC(NC4CCOC4)C3)n2)c2c(F)cccc12 (stereo not drawn) [Example 607, N-(3-{3-[7-fluoro-3-(propan-2-yl)-1H-indazol-1-yl]-1,2,4-oxadiazol-5-yl)cyclobutyl)tetrahydrofuran-3-amine] | < 0.02 | – | –
CC(=O)N1CC[C@@H](NC2CC(c3nc(-n4nc(C(C)C)c5cccc(F)c54)no3)C2)C1 (stereo partly drawn) [Example 592, 1-{(3R)-3-[(3-{3-[7-fluoro-3-(propan-2-yl)-1H-indazol-1-yl]-1,2,4-oxadiazol-5-yl}cyclobutyl)amino]pyrrolidin-1-yl}ethanone] | < 0.02 | – | –
COCCNC1CCC(c2nc(-n3nc(C(C)C)c4cccc(F)c43)no2)CC1 (stereo not drawn) [Example 621, 4-{3-[7-fluoro-3-(propan-2-yl)-1H-indazol-1-yl]-1,2,4-oxadiazol-5-yl}-N-(2-methoxyethyl)cyclohexanamine] | 0.0694 | – | –
CC(C)c1nn(-c2noc(C3CCN(C(C)(C)C(=O)O)CC3)n2)c2c(F)cccc12 [Example 401, 2-(4-{3-[7-fluoro-3-(propan-2-yl)-1H-indazol-1-yl]-1,2,4-oxadiazol-5-yl}piperidin-1-yl)-2-methylpropanoic acid hydrochloride] | 0.296 | – | –
CC(C)c1nn(-c2noc(C3CC(NCCC4CCCOC4)C3)n2)c2c(F)cccc12 (stereo not drawn) [Example 604, 3-{3-[7-fluoro-3-(propan-2-yl)-1H-indazol-1-yl]-1,2,4-oxadiazol-5-yl}-N-[2-(tetrahydro-2H-pyran-3-yl)ethyl]cyclobutanamine] | < 0.02 | – | –
CC(C)c1nn(-c2noc(C3CC(NCCC4CCOCC4)C3)n2)c2c(F)cccc12 (stereo not drawn) [Example 603, 3-{3-[7-fluoro-3-(propan-2-yl)-1H-indazol-1-yl]-1,2,4-oxadiazol-5-yl}-N-[2-(tetrahydro-2H-pyran-4-yl)ethyl]cyclobutanamine] | 0.0286 | – | –
COCCN(CC1CCOCC1)C1CC(c2nc(-n3nc(C(C)C)c4cccc(F)c43)no2)C1 (stereo not drawn) [Example 613, 3-{3-[7-fluoro-3-(propan-2-yl)-1H-indazol-1-yl]-1,2,4-oxadiazol-5-yl}-N-(2-methoxyethyl)-N-{tetrahydro-2H-pyran-4-ylmethyl)cyclobutanamine] | < 0.02 | – | –

Next, values leading:

IC50 [1] [µM] | Emax (human 5-HT4b receptor) [%] | EC50 (human 5-HT4b receptor) [µM] | SMILES
0.0959 | 94 | 0.0422 | CC(=O)NCCN(C1CCOCC1)C1CC(c2nc(-n3nc(C(C)C)c4cccc(F)c43)no2)C1 (stereo not drawn) [Example 611, N-{2-[(3-{3-[7-fluoro-3-(propan-2-yl)-1H-indazol-1-yl]-1,2,4-oxadiazol-5-yl}cyclobutyl)(tetrahydro-2H-pyran-4-yl)amino]ethyl}acetamide]
0.0358 | 79 | 0.009 | CC(C)c1nn(-c2noc(C[C@H]3CCN(C[C@H]4CCCN4C(=O)CO)C3)n2)c2c(F)cccc12 [Example 541, 1-[(2R)-2-{[(3R)-3-({3-[7-fluoro-3-(propan-2-yl)-1H-indazol-1-yl]-1,2,4-oxadiazol-5-yl}methyl)pyrrolidin-1-yl]methyl}pyrrolidin-1-yl]-2-hydroxyethanone]
< 0.02 | 90 | 0.0031 | CC(=O)NCCCN[C@H]1C[C@@H](c2nc(-n3nc(C(C)C)c4cccc(F)c43)no2)C1 [Example 566]
0.105 | – | – | CC(C)c1nn(-c2noc([C@H]3CC[C@@H](NC4CCCOC4)CC3)n2)c2c(F)cccc12 (relative stereo) [Example 623, N-(cis-4-{3-[7-fluoro-3-(propan-2-yl)-1H-indazol-1-yl]-1,2,4-oxadiazol-5-yl}cyclohexyl)tetrahydro-2H-pyran-3-amine]
0.0202 | – | – | CC(C)c1nn(-c2noc(C3CCN(CCc4cccnc4)CC3)n2)c2c(F)cccc12 [Example 399, 7-fluoro-3-(propan-2-yl)-1-(5-{1-[2-(pyridin-3-yl)ethyl]piperidin-4-yl}-1,2,4-oxadiazol-3-yl)-1H-indazole]
< 0.02 | – | – | COc1nn(-c2noc(C3CCN(C4CCN(C(C)=O)CC4)CC3)n2)c2c(F)cccc12 [Example 624, 1-{4-[3-(7-fluoro-3-methoxy-1H-indazol-1-yl)-1,2,4-oxadiazol-5-yl]-1,4′-bipiperidin-1′-yl}ethanone]
< 0.02 | – | – | COCCCNC1CC(c2nc(-n3nc(C(C)C)c4cccc(F)c43)no2)C1 (stereo not drawn) [Example 609, 3-{3-[7-fluoro-3-(propan-2-yl)-1H-indazol-1-yl]-1,2,4-oxadiazol-5-yl}-N-(3-methoxypropyl)cyclobutanamine]
< 0.02 | – | – | CC(C)c1nn(-c2noc(C3CC(NCC4CCCCO4)C3)n2)c2c(F)cccc12 (stereo not drawn) [Example 602, 3-{3-[7-fluoro-3-(propan-2-yl)-1H-indazol-1-yl]-1,2,4-oxadiazol-5-yl}-N-(tetrahydro-2H-pyran-2-ylmethyl)cyclobutanamine]
< 0.02 | – | – | CC(C)c1nn(-c2noc(C3CC(NCC4CCCOC4)C3)n2)c2c(F)cccc12 (stereo not drawn) [Example 601, 3-{3-[7-fluoro-3-(propan-2-yl)-1H-indazol-1-yl]-1,2,4-oxadiazol-5-yl}-N-{tetrahydro-2H-pyran-3-ylmethyl)cyclobutanamine]
0.0274 | – | – | CC(=O)N1CCC(N2CC(Cc3nc(-n4nc(C(C)C)c5cccc(F)c54)no3)C2)CC1 [Example 416]
0.0252 | – | – | CC(C)Cc1nn(-c2noc(C3CCN(C4CCN(C(=O)CO)CC4)CC3)n2)c2c(F)cccc12 [Example 526, 1-(4-{3-[7-fluoro-3-(2-methylpropyl)-1H-indazol-1-yl]-1,2,4-oxadiazol-5-yl}-1,4′-bipiperidin-1′-yl)-2-hydroxyethanone]
< 0.02 | – | – | CC(C)c1nn(-c2noc([C@H]3CC[C@H](NCC4CCCO4)CC3)n2)c2c(F)cccc12 (relative stereo) [Example 620, trans-4-{3-[7-fluoro-3-(propan-2-yl)-1H-indazol-1-yl]-1,2,4-oxadiazol-5-yl}-N-(tetrahydrofuran-2-ylmethyl)cyclohexanamine]
< 0.02 | – | – | CC(C)c1nn(-c2noc([C@H]3C[C@H](NCCC4CCCCO4)C3)n2)c2c(F)cccc12 (relative stereo) [Example 598, trans-3-{3-[7-fluoro-3-(propan-2-yl)-1H-indazol-1-yl]-1,2,4-oxadiazol-5-yl}-N-[2-(tetrahydro-2H-pyran-2-yl)ethyl]cyclobutanamine]
< 0.02 | – | – | CC(C)c1nn(-c2noc(C3CC(NCC4CCOC4)C3)n2)c2c(F)cccc12 (stereo not drawn) [Example 608, 3-{3-[7-fluoro-3-(propan-2-yl)-1H-indazol-1-yl]-1,2,4-oxadiazol-5-yl}-N-(tetrahydrofuran-3-ylmethyl)cyclobutanamine]
0.0521 | – | – | CCOC(=O)N1CCC(N2CCC(c3nc(-n4nc(C(C)C)c5cccc(F)c54)no3)CC2)C(OC)C1 (stereo not drawn) [Example 556, ethyl 4-{3-[7-fluoro-3-(propan-2-yl)-1H-indazol-1-yl]-1,2,4-oxadiazol-5-yl}-3′-methoxy-1,4′-bipiperidine-1′-carboxylate]
0.123 | – | – | CC(=O)N1CCCC(N[C@H]2CC[C@@H](c3nc(-n4nc(C(C)C)c5cccc(F)c54)no3)CC2)C1 (relative stereo) [Example 622, 1-{3-[(cis-4-{3-[7-fluoro-3-(propan-2-yl)-1H-indazol-1-yl]-1,2,4-oxadiazol-5-yl}cyclohexyl)amino]piperidin-1-yl}ethanone]
0.0274 | – | – | COCCN(C1CCOCC1)[C@H]1C[C@H](c2nc(-n3nc(C(C)C)c4cccc(F)c43)no2)C1 [Example 615, N-(trans-3-{3-[7-fluoro-3-(propan-2-yl)-1H-indazol-1-yl]-1,2,4-oxadiazol-5-yl}cyclobutyl)-N-(2-methoxyethyl)tetrahydro-2H-pyran-4-amine]

From patent US20140057895A1, “INDAZOLE- AND PYRROLOPYRIDINE-DERIVATIVE AND PHARMACEUTICAL USE THEREOF” (priority 2011, published 2014)
